Reference: BindingDB's records for doi:10.1111/cbdd.12205 (Srtm University, 2014)
pIC50: −log10 of the molar value.

How the values were obtained:
[1] = biological target: Alpha-glucosidase MAL12 (Saccharomyces cerevisiae (strain ATCC 204508 / S288c), UniProt P53341); assay: Alpha-Glucosidase Assay
Method: The assay was performed using isolated phenolics from maize, and inhibition was determined according to previously described method.

[2] = biological target: Xanthine dehydrogenase/oxidase (Bos taurus, UniProt P80457); assay: Xanthine Oxidase Activity; conditions: pH 7.6; 25 °C
Xanthine dehydrogenase/oxidase, sequence (P80457 whole entry): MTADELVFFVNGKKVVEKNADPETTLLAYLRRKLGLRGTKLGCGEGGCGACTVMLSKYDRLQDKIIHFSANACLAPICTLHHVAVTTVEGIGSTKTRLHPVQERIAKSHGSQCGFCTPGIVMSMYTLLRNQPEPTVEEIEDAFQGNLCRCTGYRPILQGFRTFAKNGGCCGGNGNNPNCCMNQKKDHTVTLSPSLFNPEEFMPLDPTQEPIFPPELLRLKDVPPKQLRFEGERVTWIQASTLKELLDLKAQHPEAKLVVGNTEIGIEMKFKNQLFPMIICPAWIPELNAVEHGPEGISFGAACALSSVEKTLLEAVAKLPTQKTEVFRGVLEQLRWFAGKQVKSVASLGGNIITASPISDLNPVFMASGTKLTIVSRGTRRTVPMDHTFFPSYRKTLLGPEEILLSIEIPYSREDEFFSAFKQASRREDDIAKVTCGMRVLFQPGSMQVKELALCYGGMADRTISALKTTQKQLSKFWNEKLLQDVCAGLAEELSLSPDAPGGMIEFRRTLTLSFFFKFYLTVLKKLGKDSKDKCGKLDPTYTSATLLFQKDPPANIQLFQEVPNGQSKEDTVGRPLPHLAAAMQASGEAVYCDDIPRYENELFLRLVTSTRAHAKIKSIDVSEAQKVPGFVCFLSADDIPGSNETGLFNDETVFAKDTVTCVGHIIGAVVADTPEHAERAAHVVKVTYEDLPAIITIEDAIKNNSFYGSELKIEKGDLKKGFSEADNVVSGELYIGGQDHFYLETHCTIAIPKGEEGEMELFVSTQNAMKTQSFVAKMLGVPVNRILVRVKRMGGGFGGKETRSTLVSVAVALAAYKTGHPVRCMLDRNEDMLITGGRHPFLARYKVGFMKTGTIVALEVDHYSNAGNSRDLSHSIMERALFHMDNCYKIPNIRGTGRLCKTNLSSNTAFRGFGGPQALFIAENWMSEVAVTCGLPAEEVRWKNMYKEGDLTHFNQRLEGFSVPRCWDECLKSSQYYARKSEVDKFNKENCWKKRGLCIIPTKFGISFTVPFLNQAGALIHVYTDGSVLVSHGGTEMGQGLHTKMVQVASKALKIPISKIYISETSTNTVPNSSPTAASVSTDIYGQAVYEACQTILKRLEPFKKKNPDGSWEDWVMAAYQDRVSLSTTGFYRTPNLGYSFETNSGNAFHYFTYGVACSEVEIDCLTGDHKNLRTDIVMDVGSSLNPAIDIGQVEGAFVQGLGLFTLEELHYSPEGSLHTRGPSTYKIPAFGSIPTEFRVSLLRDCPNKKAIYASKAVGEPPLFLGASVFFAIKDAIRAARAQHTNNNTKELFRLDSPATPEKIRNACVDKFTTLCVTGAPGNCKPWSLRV
Method: The enzyme was preincubated with test compound, dissolved in DMSO (1% v/v), for 5 min and the reaction was initiated by the addition of xanthine.

Alpha-glucosidase MAL12, sequence (P53341 whole entry): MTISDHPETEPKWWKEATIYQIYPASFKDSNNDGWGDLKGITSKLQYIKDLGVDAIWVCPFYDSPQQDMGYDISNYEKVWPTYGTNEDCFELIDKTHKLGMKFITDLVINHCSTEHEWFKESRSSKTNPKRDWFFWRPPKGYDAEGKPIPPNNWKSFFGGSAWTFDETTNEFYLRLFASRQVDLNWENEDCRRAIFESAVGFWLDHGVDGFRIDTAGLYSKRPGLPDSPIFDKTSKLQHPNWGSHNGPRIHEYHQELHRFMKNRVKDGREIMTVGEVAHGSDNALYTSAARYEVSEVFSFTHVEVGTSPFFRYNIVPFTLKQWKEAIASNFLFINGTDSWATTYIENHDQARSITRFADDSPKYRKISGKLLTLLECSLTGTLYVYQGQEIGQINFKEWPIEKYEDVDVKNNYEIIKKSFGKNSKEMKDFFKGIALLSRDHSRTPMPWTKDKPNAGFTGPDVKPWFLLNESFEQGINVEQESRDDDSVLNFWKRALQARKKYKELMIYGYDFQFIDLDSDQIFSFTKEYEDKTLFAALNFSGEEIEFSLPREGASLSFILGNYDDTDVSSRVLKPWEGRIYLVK

Row | Structure (SMILES) | pIC50 [1] | pIC50 [2]
1 | O=c1cc(O)cc2oc(-c3ccc(O)c(O)c3)c(OC3OC(CO)C(O)C(O)C3O)cc1-2 (stereo not drawn) [Cyanidin-3-glucoside (M8)] | 3.66 | 5.14
2 | O=C(O)c1c(O)cc(O)cc1O [2,4,6-trihydroxybenzoic acid (M3)] | 3.95 | 5.19
3 | COc1cc(C(=O)O)ccc1O [4-hydroxy-3-methoxybenzoic acid] | 3.69 | 5.07
4 | COc1cc(/C=C/C(=O)O)ccc1O [Ferulic acid (M5)] | 3.60 | 5.09
5 | O=C(O)/C=C/c1ccc(O)cc1 [p-Coumaric Acid] | 4.04 | 5.17
6 | COc1cc(-c2oc3cc(O)cc(=O)c-3cc2OC2OC(CO)C(O)C(O)C2O)ccc1O [5,7‐dihydroxy‐2‐(4‐hydroxy‐3‐methoxyphenyl)‐3‐ {[(2S,3R,4S,5S,6R)‐3,4,5‐trihydroxy‐6‐ (hydroxymethyl)oxan‐2‐yl]oxy}‐1λ⁴‐chromen‐1‐ylium] | 3.58 | 5.06
7 | O=C(O)c1ccc(O)c(O)c1 [Protocatechuic acid (M1)] | 4.07 | 5.24
8 | CC[C@H]1O[C@@H](Oc2c(-c3ccc(O)c(OC)c3)oc3cc(O)cc(=O)c-3c2O)[C@H](O)[C@@H](O)[C@@H]1O [3‐{[(2S,3R,4S,5S,6R)‐6‐ethyl‐3,4,5‐trihydroxyoxan‐2‐ yl]oxy}‐5,7‐dihydroxy‐2‐(4‐hydroxy‐3‐ methoxyphenyl)‐4H‐chromen‐4‐one] | 3.61 | 5.07
9 | O=c1cc(O)cc2oc(-c3ccc(O)cc3)c(OC3OC(CO)C(O)C(O)C3O)cc1-2 [5,7‐dihydroxy‐2‐(4‐hydroxyphenyl)‐3‐ {[(2S,3R,4S,5S,6R)‐3,4,5‐trihydroxy‐6‐ (hydroxymethyl)oxan‐2‐yl]oxy}‐1λ⁴‐chromen‐1‐ylium] | 3.70 | 5.15
